Test results: US11787810B2, “Diacylglyceride O-acyltransferase 2 inhibitors” (Merck Sharp & Dohme Corp., priority 2020, dated 2023)

Target: human DGAT2 (hDGAT2) (Homo sapiens (Human), UniProt Q96PD7)
Test: DGAT2 enzymatic activity assay (13C18-triolein formation, LC/MS/MS)
Type: biochemical
Details: hDGAT2 Sf-9 membrane prep, 25 μM diolein, 5 μM 13C oleoyl-CoA; read-out: Human DGAT2 IC50
Method: Sf-9 insect cells were maintained in Grace's insect cell culture medium with 10% heated-inactivated fetal bovine serum, 1% Pluronic F-68 and 0.14 μg/ml Kanamycine sulfate at 27° C. in a shaker incubator. After infection with untagged baculovirus expressing human DGAT2 (hDGAT2) at multiplicity of infection (MOI) 3 for 48 hours, cells were harvested. Cell pellets were suspended in buffer containing 10 mM Tris-HCl pH 7.5, 1 mM EDTA, 250 mM sucrose and Complete Protease Inhibitor Cocktail (Sigma Aldrich), and sonicated on ice. Cell debris were removed by centrifugation at 2000×g for 15 minutes. Membrane fractions were isolated by ultracentrifugation (100,000×g), resuspended in the same buffer, and frozen (−80° C.) for later use. The protein concentration was determined with the Pierce™ BCA Protein Assay Kit (Thermo Fisher Scientific). Expression of protein levels was analyzed by immunoblotting with rabbit anti-DGAT2 antibody (Abcam, ab102831) and donkey anti-rabbit IgG H&L Alexa Fluor® 647 (Abcam, ab150075) followed by detection using Typhoon FLA9000 (GE Healthcare).
LC/MS/MS analyses were performed using Thermal Fisher's LX4-TSQ Vantage system. This system consists of an Agilent binary high-performance liquid chromatography (HPLC) pumps and a TSQ Vantage triple quadrupole MS/MS instrument. For each sample, 2 μL samples from the top organic layer of in-plate liquid-liquid extraction were injected onto a Thermo Betabasic C4 column (2.1 mm×20 mm, 5 μm particle size). The samples were then eluted using the following conditions; mobile phase: Isopropanol:acetonitrile/10 mM ammonium formate=50/35/15 (v/v/v), flow rate: 0.8 mL/min, temperature: 25° C. Data was acquired in positive mode using a heated electrospray ionization (HESI) interface. The operational parameters for the TSQ Vantage MS/MS instrument were a spray voltage of 3000 V, capillary temperature of 280° C., vaporizer temperature 400° C., sheath gas 45 arbitrary unit, Aux gas 10 arbitrary units, S-lens 165 and collision gas 1.0 mTorr. […] (SRM) chromatograms of ^13C18-triolein (Q1: 920.8>Q3:621.3) and internal standard ^13C21-triolein (Q1: 923.8>Q3:617.3) were collected for 33 sec. The peak area was integrated by Xcalibur Quan software. The ratio between the ^13C18triolein generated in the reaction and spiked in internal standard ^13C21-triolein was used to generate percentage inhibition and IC50 values. Compound percentage inhibition was calculated by the following formula: Inhibition %=1-[(compound response−low control)/(high control−low control)]×100%. Potent compounds were titrated and IC50 were calculated by 4 parameter sigmoidal curve fitting formula.
DGAT2 activity was determined by measuring the amount of enzymatic product ^13C18-triolein (^13C-1,2,3-Tri(cis-9-octadecenoyl)glycerol) using the membrane prep mentioned above. The assay was carried out in ABgene 384-well assay plates in a final volume of 25 μL at rt. The assay mixture contained the following: assay buffer (100 mM Tris·Cl, pH 7.0, 20 mM MgCl2, 5% ethanol), 25 μM of diolein, 5 μM of ^13C oleoyl-CoA and 8 ng/μL of DGAT2 membrane.

Chain of human DGAT2 (hDGAT2) (Q96PD7 whole entry): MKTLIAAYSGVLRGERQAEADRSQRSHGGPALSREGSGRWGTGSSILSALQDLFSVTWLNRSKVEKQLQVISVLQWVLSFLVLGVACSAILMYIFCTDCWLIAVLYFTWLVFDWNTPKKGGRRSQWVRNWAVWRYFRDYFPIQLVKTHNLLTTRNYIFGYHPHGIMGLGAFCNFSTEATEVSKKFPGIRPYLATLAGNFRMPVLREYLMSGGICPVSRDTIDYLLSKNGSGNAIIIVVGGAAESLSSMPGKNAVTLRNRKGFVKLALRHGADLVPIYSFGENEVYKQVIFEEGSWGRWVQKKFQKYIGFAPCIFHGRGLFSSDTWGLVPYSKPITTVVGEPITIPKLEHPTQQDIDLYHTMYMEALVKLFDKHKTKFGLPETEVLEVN

SMILES | IC50 [µM]
CC(O)C(C)n1nc(-c2cccc(OC(F)F)c2)c2ncc(C(=O)NC3(C)CS(=O)(=O)C3)cc21 (single isomer, unassigned) [Example 78a, 3-(3-(difluoromethoxy)phenyl)-1-(3-hydroxybutan-2-yl)-N-(3-methyl-1,1-dioxidothietan-3-yl)-1H-pyrazolo[4,3-b]pyridine-6-carboxamide] | 1.73
CC1(NC(=O)c2cnc3c(-c4cccc(OC(F)F)c4)nn(C4CCOCC4F)c3c2)CS(=O)(=O)C1 (single isomer, unassigned) [Example 75b, 3-(3-(difluoromethoxy)phenyl)-1-(3-fluorotetrahydro-2H-pyran-4-yl)-N-(3-methyl-1,1-dioxidothietan-3-yl)-1H-pyrazolo[4,3-b]pyridine-6-carboxamide] | 0.009
C[C@]1(NC(=O)c2cnc3c(-c4cccc(OC(F)F)c4)nn(C4CCCOC4)c3c2)CCS(=O)(=O)C1 (single isomer, unassigned) [Example 62b] | 0.116
CC(C)n1nc(-c2cccc(OC(F)F)c2)c2ncc(C(=O)NC3(CO)CCOC3)cc21 (single isomer, unassigned) [Example 39a, 3-[3-(difluoromethoxy)phenyl]-N-[3-(hydroxymethyl)tetrahydrofuran-3-yl]-1-isopropyl-pyrazolo[4,3-b]pyridine-6-carboxamide] | 0.019
CC(C)n1cc(-c2cccc(OC(F)F)c2)c2ncc(C(=O)NC3(C)CS(=O)(=O)C3)cc21 [Example 37, 3-(3-(difluoromethoxy)phenyl)-1-isopropyl-N-(3-methyl-1,1-dioxidothietan-3-yl)-1H-pyrrolo[3,2-b]pyridine-6-carboxamide] | 0.05
CC(O)C(C)n1nc(-c2cccc(OC(F)F)c2)c2ncc(C(=O)NC3(C)CS(=O)(=O)C3)cc21 (single isomer, unassigned) [Example 78b, 3-(3-(difluoromethoxy)phenyl)-1-(3-hydroxybutan-2-yl)-N-(3-methyl-1,1-dioxidothietan-3-yl)-1H-pyrazolo[4,3-b]pyridine-6-carboxamide] | 0.0044
CN1CCC(n2nc(-c3cccc(OC(F)F)c3)c3ncc(C(=O)NC4(C)CS(=O)(=O)C4)cc32)CC1 [Example 134, 3-(3-(Difluoromethoxy)phenyl)-N-(3-methyl-1,1-dioxidothietan-3-yl)-1-(1-methylpiperidin-4-yl)-1H-pyrazolo[4,3-b]pyridine-6-carboxamide] | 0.033
CC(C)n1nc(-c2cccc(OC(F)F)c2)c2ncc(C(=O)NC(C)(C)CO)cc21 [Example 42, 3-(3-(difluoromethoxy)phenyl)-N-(1-hydroxy-2-methylpropan-2-yl)-1-isopropyl-1H-pyrazolo[4,3-b]pyridine-6-carboxamide] | 0.038
C[C@]1(NC(=O)c2cnc3c(-c4cccc(OC(F)F)c4)cn(-c4ccc(F)cc4)c3c2)CCS(=O)(=O)C1 [Example 9, (S)-3-(3-(difluoromethoxy)phenyl)-1-(4-fluorophenyl)-N-(3-methyl-1,1-dioxidotetrahydrothiophen-3-yl)-1H-pyrrolo[3,2-b]pyridine-6-carboxamide] | 0.0068
CC(C)n1nc(-c2cccc(OC(F)F)c2)c2ncc(C(=O)NC3(C)CS(=O)(=O)C3)cc21 [Example 25, 3-[3-(difluoromethoxy)phenyl]-1-isopropyl-N-(3-methyl-1,1-dioxidothietan-3-yl)-1H-pyrazolo[4,3-b]pyridine-6-carboxamide] | 0.0047
CC(O)Cn1nc(-c2cccc(OC(F)F)c2)c2ncc(C(=O)NC3(C)CS(=O)(=O)C3)cc21 (single isomer, unassigned) [Example 68b, 3-(3-(difluoromethoxy)phenyl)-1-(2-hydroxypropyl)-N-(3-methyl-1,1-dioxidothietan-3-yl)-1H-pyrazolo[4,3-b]pyridine-6-carboxamide] | 0.179
CC(C)n1nc(-c2cccc(OC(F)F)c2)c2ncc(C(=O)NC3(C(C)O)CCOC3)cc21 (single isomer, unassigned) [Example 50c, 3-(3-(difluoromethoxy)phenyl)-N-(3-(1-hydroxyethyl)tetrahydrofuran-3-yl)-1-isopropyl-1H-pyrazolo[4,3-b]pyridine-6-carboxamide] | 0.108
O=C(N[C@@H]1CCC[C@H]1N1CCOCC1)c1cnc2c(-c3cccc(OC(F)F)c3)cn(-c3ncc(F)cn3)c2c1 [Example 7, 3-(3-(difluoromethoxy)phenyl)-1-(5-fluoropyrimidin-2-yl)-N-((1R,2R)-2-morpholinocyclopentyl)-1H-pyrrolo[3,2-b]pyridine-6-carboxamide] | 0.045
C[C@]1(NC(=O)c2cnc3c(-c4cccc(OC(F)F)c4)cn(-c4ccc(F)cc4)c3n2)CCS(=O)(=O)C1 [Example 24, (S)-7-(3-(difluoromethoxy)phenyl)-5-(4-fluorophenyl)-N-(3-methyl-1,1-dioxidotetrahydrothiophen-3-yl)-5H-pyrrolo[2,3-b]pyrazine-3-carboxamide] | 0.05
CC(C)n1nc(-c2cccc(OC(F)F)c2)c2ncc(C(=O)NC(C)(C)C(C)O)cc21 (single isomer, unassigned) [Example 46b, 3-(3-(difluoromethoxy)phenyl)-N-(3-hydroxy-2-methylbutan-2-yl)-1-isopropyl-1H-pyrazolo[4,3-b]pyridine-6-carboxamide] | 0.013
C[C@]1(NC(=O)c2cnc3c(-c4cccc(OC(F)F)c4)nn(C4CCCOC4)c3c2)CCS(=O)(=O)C1 (single isomer, unassigned) [Example 62a] | 0.059
CC1(NC(=O)c2cnc3c(-c4cccc(OC(F)F)c4)nn(C(C)(C)C(C)(C)O)c3c2)CS(=O)(=O)C1 [Example 129, 3-(3-(difluoromethoxy)phenyl)-1-(3-hydroxy-2,3-dimethylbutan-2-yl)-N-(3-methyl-1,1-dioxidothietan-3-yl)-1H-pyrazolo[4,3-b]pyridine-6-carboxamide] | 0.097
CC(O)C(C)n1nc(-c2cccc(OC(F)F)c2)c2ncc(C(=O)NC3(C)CS(=O)(=O)C3)cc21 (single isomer, unassigned) [Example 78c, 3-(3-(difluoromethoxy)phenyl)-1-(3-hydroxybutan-2-yl)-N-(3-methyl-1,1-dioxidothietan-3-yl)-1H-pyrazolo[4,3-b]pyridine-6-carboxamide] | 0.121
CC(C)n1nc(-c2cccc(OC(F)F)c2)c2ncc(C(=O)NC3(C)CCOC3)cc21 (single isomer, unassigned) [Example 48b, 3-(3-(difluoromethoxy)phenyl)-1-isopropyl-N-(3-methyltetrahydrofuran-3-yl)-1H-pyrazolo[4,3-b]pyridine-6-carboxamide] | 0.016

Same assay, conditions: table head without 'Human'; same membrane assay; read-out: DGAT2 IC50

SMILES | IC50 [µM]
CC(n1nc(-c2cc(OC(F)(F)F)ccc2F)c2ncc(C(=O)NC3(C)CS(=O)(=O)C3)cc21)C(C)(C)O (single isomer, unassigned) [Example 132a, 3-(2-fluoro-5-(trifluoromethoxy)phenyl)-1-(3-hydroxy-3-methylbutan-2-yl)-N-(3-methyl-1,1-dioxidothietan-3-yl)-1H-pyrazolo[4,3-b]pyridine-6-carboxamide] | 0.231
CC(n1nc(-c2cccc(OC(F)F)c2)c2ncc(C(=O)NC3(C)CS(=O)(=O)C3)cc21)C(C)(C)O (single isomer, unassigned) [Example 130a, 3-(3-(difluoromethoxy)phenyl)-1-(3-hydroxy-3-methylbutan-2-yl)-N-(3-methyl-1,1-dioxidothietan-3-yl)-1H-pyrazolo[4,3-b]pyridine-6-carboxamide] | 0.0028
CC(n1nc(-c2cc(OC(F)(F)F)ccc2F)c2ncc(C(=O)NC3(C)CS(=O)(=O)C3)cc21)C(C)(C)O (single isomer, unassigned) [Example 132b, 3-(2-fluoro-5-(trifluoromethoxy)phenyl)-1-(3-hydroxy-3-methylbutan-2-yl)-N-(3-methyl-1,1-dioxidothietan-3-yl)-1H-pyrazolo[4,3-b]pyridine-6-carboxamide] | 0.215
